The values below are quoted from earlier work in patent US8236354B1, “Use of immunomodulators for the treatment of cancer” (ZOR Pharmaceuticals, LLC, priority 2012, dated 2012).

Each structure is given as a SMILES string.

For the data set, the system named is advanced pancreatic cancer. As to conditions: cited from earlier work; for median Overall Survival: survival from study enrollment to death from any cause.

`O=c1[nH]cc(F)c(=O)[nH]1` [5-FU, 5-fluorouracil]: the “median Overall Survival” value is reported as 4.2 months. As to `Nc1ccn([C@@H]2O[C@H](CO)[C@@H](O)C2(F)F)c(=O)n1` [gemcitabine], the “median Overall Survival” value was 5.7 months. Further, the “increased median survival versus 5-FU” value (in vivo) is on record as 1.5 months.
